Results: PMC12802350, “Opposite effects of spermidine and GC7 in cell culture are dictated by distinct molecular targets” (Biochemical Journal, 2025)

What was measured:
[1] = molecular target: T1, bovine serum amine oxidase (BSAO) (Bos taurus, UniProt Q29437); test: DCHBS/AAP peroxide-coupled kinetic assay with spermidine as substrate, Morrison tight-binding fit; type: biochemical; set-up: BSAO purified from bovine blood
T1 sequence (Q29437 17-762): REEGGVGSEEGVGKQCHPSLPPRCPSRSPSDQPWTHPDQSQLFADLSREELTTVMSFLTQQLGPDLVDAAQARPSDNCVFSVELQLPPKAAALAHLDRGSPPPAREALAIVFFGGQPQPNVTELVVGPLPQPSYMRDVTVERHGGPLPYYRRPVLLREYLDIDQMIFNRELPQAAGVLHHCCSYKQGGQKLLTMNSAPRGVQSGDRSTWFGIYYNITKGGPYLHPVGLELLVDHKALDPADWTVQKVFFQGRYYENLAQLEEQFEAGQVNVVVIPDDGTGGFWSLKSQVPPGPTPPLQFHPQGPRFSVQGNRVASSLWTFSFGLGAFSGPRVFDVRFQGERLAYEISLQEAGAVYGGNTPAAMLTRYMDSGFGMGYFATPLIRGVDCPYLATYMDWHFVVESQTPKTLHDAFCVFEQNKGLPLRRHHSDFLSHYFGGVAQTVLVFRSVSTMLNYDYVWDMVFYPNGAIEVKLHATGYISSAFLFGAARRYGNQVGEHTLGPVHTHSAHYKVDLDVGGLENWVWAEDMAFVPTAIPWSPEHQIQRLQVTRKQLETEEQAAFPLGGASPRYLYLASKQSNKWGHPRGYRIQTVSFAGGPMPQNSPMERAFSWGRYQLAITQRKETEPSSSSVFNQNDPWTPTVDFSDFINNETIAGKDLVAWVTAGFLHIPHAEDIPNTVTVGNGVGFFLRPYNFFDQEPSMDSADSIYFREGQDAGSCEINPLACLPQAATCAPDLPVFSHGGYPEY

[2] = molecular target: T1, bovine serum amine oxidase (BSAO); test: spectrophotometric benzaldehyde formation at […] nm; type: biochemical; set-up: BSAO purified from bovine blood; also decomplemented FBS

| Ki [1] | SMILES | spectrophotometric benzaldehyde formation at 250 nm [2] |
| --- | --- | --- |
| 308 nM | N=C(N)NCCCCCCCN [GC7] |  |
|  | NCc1ccccc1 [benzylamine] | BSAO and decomplemented FBS activities were determined spectrophotometrically as the amount of benzaldehyde formed per min (μmol/min) from benzylamine |
